{"source": "patent US20050059615A1", "about": "“Transmucosal dosage forms for brain-targeted steroid chemical delivery systems” (priority 2003, published 2005)", "key": {"[1]": {"assay": "Phase I clinical study: serum estradiol (E2) levels", "type": "in vivo, postmenopausal women", "settings": "2.86 mg buccal, repeated dosing, both groups", "excerpt": "(§1) A brief evaluation of the results follows:"}, "LH [2]": {"tested_on": "LH", "assay": "Phase I clinical study: LH suppression", "type": "in vivo, postmenopausal women", "description": "(§4) Even more recently, in a Phase I clinical study of postmenopausal women, two different administration regimens of a 2.86 mg E2-CDS buccal delivery tablet were evaluated for safety and effects on hormone levels. The subjects were 12 healthy postmenopausal volunteers, divided into two groups of six. In Group A, women were dosed once daily for 10 days (10 doses); in Group B, women were dosed once every other day for 13 days (7 doses)."}, "FSH [3]": {"tested_on": "FSH", "assay": "Phase I clinical study: FSH suppression", "type": "in vivo, postmenopausal women", "settings": "for suppression in FSH levels: first 24 hours post-dose, 2.86 mg buccal", "excerpt": "as §1"}, "prolactin": {"tested_on": "prolactin", "assay": "Phase I clinical study: prolactin", "type": "in vivo, postmenopausal women", "excerpt": "as §1"}, "[4]": {"tested_on": "SHBG (Sex Hormone-binding Globulin)", "assay": "Phase I clinical study: SHBG", "type": "in vivo, postmenopausal women", "excerpt": "as §1"}, "testosterone": {"tested_on": "testosterone", "assay": "Phase I clinical study: serum testosterone", "type": "in vivo, postmenopausal women", "settings": "for testosterone levels exceeding baseline values: 72 hours after the last dose", "excerpt": "as §1"}, "[5]": {"assay": "Phase I clinical study: safety and tolerance", "type": "in vivo, postmenopausal women", "settings": "2.86 mg buccal, 12 subjects, both regimens", "excerpt": "as §1"}, "FSH [6]": {"tested_on": "FSH", "assay": "Earlier clinical trial, single 2.5 mg buccal E2-CDS: FSH suppression", "type": "in vivo, postmenopausal women", "settings": "first 24 hour post-dose, 2.5 mg E2-CDS", "excerpt": "as §1"}, "castrated male rats [7]": {"tested_on": "castrated male rats", "assay": "Male rat sexual (copulatory) behavior after orchidectomy", "type": "in vivo, Sprague Dawley rats", "procedure": "Adult male Sprague Dawley rats (300-400 g) from Charles River Hungary Ltd., Godollo, Hungary, were used. Animals were kept in community cages (4 animals/cage) in a climate-controlled room (23∀2EC), with a 14 hour light, 10 hour dark cycle of artificial lighting, using reversed light/dark cycle. […] These hormones were dissolved in sunflower oil.\nAfter establishment of basal behaviors as discussed below, selected animals were orchidectomized via a single midventral incision and were rehoused.\nAfter repeated testing of animals recovered from orchidectomy as discussed below, rats were divided into four groups and treated intravenously, via a single tail vein injection, with one of the following: group 1: control (27% hydroxypropyl-β-cyclodextrin); group 2: 0.03 mg/kg E2-CDS; group 3: 0.3 mg/kg E2-CDS; and group 4: 3 mg/kg E2-CDS.\nMating was observed during the dark cycle in a plexi observation cage in a room where only a dim red light was on. The male was placed in the observation cage 5 minutes prior to the female.\nThe following parameters were then measured: • Mount latency (ML): the time from the introduction of the female to the initial mount or intromission; • Intromission latency (IL): the time from introduction of the female to the first intromission; and • Ejaculatory latency (EL): the time from the first intromission to ejaculation.\nSessions were considered negative if IL exceeded 15 minutes.\nTo establish basal behavior, each male was tested every 5 days until four successive and consistent behavioral patterns were achieved. This pretesting lasted for about four weeks. Approximately half of the animals tested were deemed suitable for orchidectomy.\nTwenty-eight days after healing from orchidectomy, the animals were tested again (Day 0) and divided into 4 experimental groups. Only animals displaying ejaculation latencies greater than 15 minutes were included in the study.\nTests of male sexual behavior were conducted 3, 7, 14, 21, 28, 35 and 42 days after drug administration or until the effect disappeared, i.e. until no statistically significant difference was found between groups during two consecutive tests.\nBehavioral patterns and related times were recorded manually by skilled observers.\n(§2) Behavioral changes were analyzed using the Mann-Whitney U test (Siegel, Nonparametric Statistics for the Behavioral Sciences, New York; McGraw-Hill Book Company, Inc., 1956). The Fisher exact test was used for percentage comparisons (Zar, Biostatistical Analysis, Prentice Hall, Inc., Englewood Cliffs, N.J., 1974). Serum LH data were analyzed for each time and treatment group by analysis of variance (ANOVA) followed by Bonferroni posthoc test.\n(§3) The testing described above was repeated using a dose of 0.03 mg/kg administered as a single i.v. injection, and a dose of 0.01 mg/kg with daily i.v. administration for 10 days. E2-CDS stock solution (40%) was diluted in 27% HPβCD solution.\nThe copulatory behavior of E2-CDS treated groups was compared to that of the HPβCD control group at 1, 3, 7, 14, and 21 days after i.v. drug administration in the 0.03 mg/kg group and at 1, 3, 7, 14 and 21 days after initial i.v. drug administration in the 0.01 mg/kg×10 days group."}, "LH [8]": {"tested_on": "LH", "assay": "Plasma LH in orchidectomized male rats (radioimmunoassay)", "type": "in vivo, Sprague Dawley rats", "procedure": "Four weeks following orchidectomy, groups of rats were treated with one of the following drug doses via tail vein injection: E2-CDS 0.03, 0.3, and 3 mg/kg. Blood samples were collected by orbital sinus puncture under light ether anesthesia. The samples were stored at 4EC for one hour and centrifuged at 1,000 g for 10 minutes. Plasma was separated and stored at −80EC until assayed. Plasma LH concentrations from individual samples were measured by double antibody radioimmunoassay kits obtained from Amersham Pharmacia Biotech, Rome, Italy. […] The limit of detection was 15 pg/mL.\nas §2, §3"}, "[9]": {"settings": "average 7 degrees of substitution, cited from earlier work"}, "castrated male rats [10]": {"tested_on": "castrated male rats", "settings": "single intravenous dose of 3 mg/kg; cited from earlier work"}, "2OHE1/16OHE1": {"tested_on": "2OHE1/16OHE1", "assay": "Phase I clinical study: urinary estrone and 2OHE1/16OHE1", "description": "as §4\nUrine was collected for 24 hours on day 1 in both groups, and overnight (8 hours) on day 10 (Group A) and on day 13 (Group B), respectively, to determine the amounts of voided urinary estrone (E1), 2OHE1, 16OHE, and the ratios of 2OHE1 to 16OHE1."}, "[11]": {"settings": "0.01 mg/kg i.v. daily for 10 days"}, "[12]": {"settings": "0.01 mg/kg i.v. daily for 10 days, by day 14"}, "[13]": {"settings": "3.0 mg/kg single i.v., days 14, 21 and 28"}}, "note": "Read-outs that look alike come from different tables or passages of the source.", "data": [{"smiles": "CN1C=CCC(C(=O)O[C@H]2CC[C@H]3[C@@H]4CCc5cc(O)ccc5[C@H]4CC[C@]23C)=C1", "note": "[E2-CDS, 17β-[(1-methyl-1,4-dihydro-3-pyridinyl)carbonyloxy]estra-1,3,5(10)-trien-3-ol]", "values": [{"measurement": "accumulation of trough E2 levels", "setting": "[1]", "value": "no signs of accumulation"}, {"measurement": "post-study LH levels", "setting": "LH [2]; 72 hours after the last dose", "value": "not different any more from screening/baseline values"}, {"measurement": "time of maximum LH depression", "setting": "LH [2]; Group A", "value": "7.3±5.3", "unit": "hours post-dose"}, {"measurement": "time of maximum LH depression", "setting": "LH [2]; Group B", "value": "7.3±2.7", "unit": "hours post-dose"}, {"measurement": "maximum decrease in LH from baseline", "setting": "LH [2]; first 24 hours, 2.86 mg buccal, Group A", "value": "13.8±4.9", "unit": "mIU/mL"}, {"measurement": "maximum decrease in LH from baseline", "setting": "LH [2]; first 24 hours, 2.86 mg buccal, Group B", "value": "12.7±6.8", "unit": "mIU/mL"}, {"measurement": "decrease in LH levels from baseline", "setting": "LH [2]; first 24 hours, 2.86 mg buccal, Groups A and B", "value": "35-40%"}, {"measurement": "post-study FSH levels below screening/baseline values", "setting": "FSH [3]; 72 hours after the last dose", "value": "14-25%"}, {"measurement": "time of maximum FSH suppression", "setting": "FSH [3]; Group A", "value": "13.2±5.7", "unit": "hours post-dose"}, {"measurement": "time of maximum FSH suppression", "setting": "FSH [3]; Group B", "value": "11.8±5.8", "unit": "hours post-dose"}, {"measurement": "suppression in FSH levels", "setting": "FSH [3]; Group A", "value": 15, "unit": "%"}, {"measurement": "suppression in FSH levels", "setting": "FSH [3]; Group B", "value": 16, "unit": "%"}, {"measurement": "increase in prolactin levels compared to baseline", "setting": "prolactin; end of the study (day 13), Group A", "value": 29.8, "unit": "%"}, {"measurement": "increase in prolactin levels compared to baseline", "setting": "prolactin; end of the study (day 16), Group B", "value": 16, "unit": "%"}, {"measurement": "SHBG concentration higher than at baseline on day 1", "setting": "[4]; Group A, day 13", "value": 22.2, "unit": "%"}, {"measurement": "SHBG concentration higher than at baseline on day 1", "setting": "[4]; Group B, day 16", "value": 41.2, "unit": "%"}, {"measurement": "testosterone levels exceeding baseline values", "setting": "testosterone; Group A", "value": 14, "unit": "%"}, {"measurement": "testosterone levels exceeding baseline values", "setting": "testosterone; Group B", "value": 28, "unit": "%"}, {"measurement": "mean testosterone AUC24 lower than baseline AUC24 (=C0*24)", "setting": "testosterone; day 1, Group A", "value": 31.1, "unit": "%"}, {"measurement": "minimum serum testosterone concentration", "setting": "testosterone; day 1, Group A", "value": "1.3 ± 1.9", "unit": "ng/dL"}, {"measurement": "time to reach minimum testosterone levels", "setting": "testosterone; day 1, Group A", "value": "6.5 ± 11.7", "unit": "h"}, {"measurement": "mean testosterone AUC24 lower than baseline AUC24 (=C0*24)", "setting": "testosterone; day 1, Group B", "value": 23.0, "unit": "%"}, {"measurement": "minimum serum testosterone concentration", "setting": "testosterone; day 1, Group B", "value": "4.0 ± 3.9", "unit": "ng/dL"}, {"measurement": "time to reach minimum testosterone levels", "setting": "testosterone; day 1, Group B", "value": "7.3 ± 11.3", "unit": "h"}, {"measurement": "adverse events (AEs) in total", "setting": "[5]", "value": "seven"}, {"measurement": "seriousness of adverse events", "setting": "[5]", "value": "no serious AE was observed"}, {"measurement": "extent of maximum FSH suppression", "setting": "FSH [6]", "value": 12.5, "unit": "%"}, {"measurement": "intromission frequency", "setting": "castrated male rats [7]; [11]", "value": "not increased significantly"}, {"measurement": "intromission latency", "setting": "castrated male rats [7]; [11]", "value": "reduced significantly"}, {"measurement": "mount frequency", "setting": "castrated male rats [7]; [11]", "value": "increased significantly"}, {"measurement": "mount latency", "setting": "castrated male rats [7]; [11]", "value": "reduced significantly"}, {"measurement": "intromission performance restored (% of animals)", "setting": "castrated male rats [7]; [12]", "value": 50, "unit": "%"}, {"measurement": "mounting performance restored (% of animals)", "setting": "castrated male rats [7]; [12]", "value": 67, "unit": "%"}, {"measurement": "effect on re-establishment of copulatory behavior", "setting": "castrated male rats [7]; 0.03 mg/kg single i.v.", "value": "no statistically significant effect"}, {"measurement": "sexual activity", "setting": "castrated male rats [7]; 0.03 mg/kg single i.v., repeated testing", "value": "improved sexual activity, but it was not statistically significant"}, {"measurement": "mounting performance restored (% of the animals)", "setting": "castrated male rats [7]; 0.3 mg/kg single i.v., by day 7", "value": 100, "unit": "%"}, {"measurement": "mount frequency", "setting": "castrated male rats [7]; 0.3 mg/kg single i.v., day 7", "value": "significantly increased"}, {"measurement": "mount latency", "setting": "castrated male rats [7]; 0.3 mg/kg single i.v., day 7 through day 28", "value": "sharply reduced"}, {"measurement": "mounting performance restored (% of the animals)", "setting": "castrated male rats [7]; 3.0 mg/kg single i.v., by day 14 and day 21", "value": 100, "unit": "%"}, {"measurement": "mount latency", "setting": "castrated male rats [7]; 3.0 mg/kg single i.v., day 7 through day 28", "value": "sharply reduced"}, {"measurement": "intromission performance", "setting": "castrated male rats [7]; 3.0 mg/kg single i.v., day 14 through day 28", "value": "improved in a statistically significant manner"}, {"measurement": "mount frequency", "setting": "castrated male rats [7]; 3.0 mg/kg single i.v., days 7, 14, 21 and 28", "value": "significantly increased"}, {"measurement": "intromission frequency", "setting": "castrated male rats [7]; [13]", "value": "statistically significant increase"}, {"measurement": "intromission latency", "setting": "castrated male rats [7]; [13]", "value": "decrease"}, {"measurement": "plasma LH level", "setting": "LH [8]; 0.01 mg/kg, 10 daily i.v. injections, day 3 to day 14", "value": "significantly reduced"}, {"measurement": "plasma LH levels", "setting": "LH [8]; 0.03 mg/kg single i.v., first study", "value": "not reduced"}, {"measurement": "plasma LH level", "setting": "LH [8]; 0.03 mg/kg single injection, repeated examination, day 3 only", "value": "significantly reduced"}, {"measurement": "plasma LH levels", "setting": "LH [8]; 0.3 mg/kg single i.v., days 1, 3 and 7", "value": "significantly reduced"}, {"measurement": "plasma LH levels", "setting": "LH [8]; 3 mg/kg single i.v., throughout 28 days", "value": "suppressed significantly"}, {"measurement": "solubility of E2-CDS (phase solubility data point)", "setting": "[9]; 20% w/v HPβCD", "value": 6.73, "unit": "mg/mL"}, {"measurement": "solubility of E2-CDS (phase solubility data point)", "setting": "[9]; 40% w/v HPβCD", "value": 16.36, "unit": "mg/mL"}, {"measurement": "solubility of E2-CDS (phase solubility data point)", "setting": "[9]; 60% w/v HPβCD", "value": 30.19, "unit": "mg/mL"}, {"measurement": "duration of improved masculine sexual behavior", "setting": "castrated male rats [10]", "value": 28, "unit": "days"}, {"measurement": "increase of the ratio of 2OHE1 to 16OHE1 during treatment", "setting": "2OHE1/16OHE1; Group A", "value": 63.6, "unit": "%"}, {"measurement": "increase of the ratio of 2OHE1 to 16OHE1 during treatment", "setting": "2OHE1/16OHE1; Group B", "value": 54.7, "unit": "%"}]}]}
